Results taken from patent publication US11400093B2, “Deuterated elagolix-like compositions and methods” (Lupin Inc., priority 2019, dated 2022).

Columns and labels:
Type in all cases: in vitro ADME
[1] = test system: cDNA-expressed CYP1A2, CYP2A6, CYP2B6, CYP2C8, CYP2C9, CYP2C19, CYP2D6, CYP2E1, CYP3A4, and CYP3A5; experiment: Metabolism by cDNA-expressed human CYP enzymes, all isoforms (parent remaining); conditions: for average percent of parent compound remaining for all isoforms and concentrations: 1.0 μM and 10 μM, 120 minutes incubation, all ten CYP isoforms
Protocol: (§1) A study was conducted to determine the effect of deuteration on the metabolism of elagolix by human cytochrome P450 (CYP) enzymes. The metabolism of 4-[[(1R)-2-[5-(2-fluoro-3-methoxyphenyl)-3-[[2-fluoro-6(trifluoromethyl)phenyl]methyl]-3,6-dihydro-4-methyl-2,6-dioxo-1(2H)-pyrimidinyl]-1-phenylethyl]amino] butanoic acid-d3 (elagolix-d3) sodium salt and 4-[[(1R)-2-[5-(2-fluoro-3-methoxyphenyl)-3-[[2-fluoro-6(trifluoromethyl)phenyl] methyl]-3,6-dihydro-4-methyl-2,6-dioxo-1(2H)-pyrimidinyl]-1-phenylethyl]amino] butanoic acid-d6 (elagolix-d6) sodium salt by cDNA-expressed CYP enzymes were investigated in vitro and compared to results obtained with undeuterated elagolix to determine which human cytochrome P450 (CYP) enzymes are involved in the metabolism of elagolix, elagolix-d3, and elagolix-d6.
Commercially available cDNA-expressed human CYP enzymes were used for this study.
A 600 μL reaction mixture containing enzyme protein, NADPH generating system (1.3 mM NADP+, 3.3 mM glucose-6-phosphate, 0.4 U/mL glucose-6-phosphate dehydrogenase, 3.3 mM magnesium chloride) and each test article (elagolix, elagolix-d3, elagolix-d6) at two concentrations (e.g. 1 μM and 10 μM) in 100 mM potassium phosphate (pH 7.4) was incubated at 37° C. At two time points (0 and 120 min), the reaction was stopped by removing an aliquot and combining it with an equal volume of cold acetonitrile containing an internal standard (deuterated elagolix was used as the internal standard for elagolix, and elagolix was used as the internal standard for elagolix-d3 and -d6) and placed on ice. Samples were centrifuged to pellet the protein and the supernatant was frozen at −20° C. for subsequent analysis by LC-MS/MS.
Protein concentrations were constant for all isoforms within each experiment and standardized by the addition of control microsomes. Incubations were performed in duplicate. Incubations with vector control enzyme preparations and without enzyme source were included as negative controls.
All other positive controls were assayed at one concentration in duplicate in accordance with the methods described above. The percent of parent remaining at the end of the incubation was compared to 0 min based on the peak area ratio of the substrate and internal standard.
LC-MS/MS methods for elagolix, elagolix-d3, and elagolix-d6 were developed. The fraction of parent compound remaining compared to 0 min was determined based on peak area ratio (analyte/internal standard).
Elagolix, elagolix-d3, and elagolix-d6 at 1.0 μM and 10 μM were each incubated in the presence of cDNA-expressed CYP1A2, CYP2A6, CYP2B6, CYP2C8, CYP2C9, CYP2C19, CYP2D6, CYP2E1, CYP3A4, and CYP3A5 for 120 minutes. The average percent of parent compound remaining for all isoforms and concentrations was >11% for elagolix, >60% for elagolix-d3, and >26% for elagolix-d6.

cDNA-expressed CYP2D6 = target: T1, cDNA-expressed CYP2D6 (Homo sapiens, UniProt P10635); experiment: Metabolism by cDNA-expressed CYP2D6 (parent remaining); conditions: 1 μM, 120 min
T1 construct: purchased
Protocol: as §1
(§2) Commercially available cDNA-expressed human CYP enzymes were used for this study. […]
(§3) LC-MS/MS methods for elagolix, elagolix-d3, and elagolix-d6 were developed. The fraction of parent compound remaining compared to 0 min was determined based on peak area ratio (analyte/internal standard). […]

cDNA-expressed CYP3A5 = target: T2, cDNA-expressed CYP3A5 (Homo sapiens, UniProt P20815); experiment: Metabolism by cDNA-expressed CYP3A5 (parent remaining); conditions: 1 μM, 120 min
T2 construct: purchased
Protocol: as §1, §2, §3

T2 sequence (P20815 whole entry): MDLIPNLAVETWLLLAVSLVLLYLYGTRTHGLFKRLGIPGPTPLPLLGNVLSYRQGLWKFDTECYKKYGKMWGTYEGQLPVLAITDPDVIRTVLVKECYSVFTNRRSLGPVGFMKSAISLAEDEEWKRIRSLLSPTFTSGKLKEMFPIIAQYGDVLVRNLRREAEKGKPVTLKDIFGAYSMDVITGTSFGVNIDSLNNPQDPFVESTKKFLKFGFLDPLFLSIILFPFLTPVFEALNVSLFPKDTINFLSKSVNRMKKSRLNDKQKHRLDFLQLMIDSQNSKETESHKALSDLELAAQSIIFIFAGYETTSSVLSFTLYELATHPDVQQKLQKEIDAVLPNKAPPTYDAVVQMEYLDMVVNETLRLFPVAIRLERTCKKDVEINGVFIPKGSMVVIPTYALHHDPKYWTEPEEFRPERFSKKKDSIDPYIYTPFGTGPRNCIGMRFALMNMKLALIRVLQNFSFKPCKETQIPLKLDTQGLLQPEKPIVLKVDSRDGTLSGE
T1 sequence (P10635 whole entry): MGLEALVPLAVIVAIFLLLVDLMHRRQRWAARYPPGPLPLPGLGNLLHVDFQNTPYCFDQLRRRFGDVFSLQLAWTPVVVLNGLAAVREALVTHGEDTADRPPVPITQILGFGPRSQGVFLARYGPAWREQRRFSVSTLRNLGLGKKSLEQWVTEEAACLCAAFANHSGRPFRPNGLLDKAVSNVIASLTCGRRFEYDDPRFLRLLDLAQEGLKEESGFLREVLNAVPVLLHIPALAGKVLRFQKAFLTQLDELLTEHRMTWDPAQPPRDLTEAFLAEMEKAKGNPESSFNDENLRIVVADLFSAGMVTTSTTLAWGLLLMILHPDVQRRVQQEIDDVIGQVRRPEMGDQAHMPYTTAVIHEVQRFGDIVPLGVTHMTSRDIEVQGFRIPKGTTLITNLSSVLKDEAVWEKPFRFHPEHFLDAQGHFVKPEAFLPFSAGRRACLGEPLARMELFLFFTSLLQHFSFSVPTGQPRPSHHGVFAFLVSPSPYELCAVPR

Structure (SMILES) | average percent of parent compound remaining for all isoforms and concentrations [1] | average amount of parent compound in a CYP enzyme assay after 120 minutes relative to that of elagolix [1] | depletion by cDNA-expressed CYP2D6 (cDNA-expressed CYP2D6) | percent parent remaining, cDNA-expressed CYP3A5 (cDNA-expressed CYP3A5) | percent parent remaining, cDNA-expressed CYP2D6 (cDNA-expressed CYP2D6)
[2H]C([2H])([2H])Oc1cccc(-c2c(C)n(Cc3c(F)cccc3C(F)(F)F)c(=O)n(C[C@H](NCCCC(=O)O)c3ccccc3)c2=O)c1F [elagolix-d3, 4-[[(1R)-2-[5-(2-fluoro-3-methoxyphenyl)-3-[[2-fluoro-6(trifluoromethyl)phenyl]methyl]-3,6-dihydro-4-methyl-2,6-dioxo-1(2H)-pyrimidinyl]-1-phenylethyl]amino] butanoic acid-d3] | > 60% | more than 400% | did not demonstrate any depletion | 60% | 
[2H]C([2H])(N[C@@H](Cn1c(=O)c(-c2cccc(OC)c2F)c(C)n(Cc2c(F)cccc2C(F)(F)F)c1=O)c1ccccc1)C([2H])([2H])C([2H])([2H])C(=O)O [elagolix-d6, 4-[[(1R)-2-[5-(2-fluoro-3-methoxyphenyl)-3-[[2-fluoro-6(trifluoromethyl)phenyl]methyl]-3,6-dihydro-4-methyl-2,6-dioxo-1(2H)-pyrimidinyl]-1-phenylethyl]amino] butanoic acid-d6] | > 26% | 136% |  |  | 
COc1cccc(-c2c(C)n(Cc3c(F)cccc3C(F)(F)F)c(=O)n(C[C@H](NCCCC(=O)O)c3ccccc3)c2=O)c1F [elagolix, 4-({(1R)-2-[5-(2-fluoro-3methoxyphenyl)-3-{[2-fluoro-6-(trifluoromethyl)phenyl]methyl}-4-methyl-2,6-dioxo-3,6dihydropyrimidin-1(2H)-yl]-1-phenylethyl}amino)butanoate] | > 11% |  |  | 11% | 62%
